Legend:
[1] = tested on: Schistocerca. gregaria; conditions: cited from earlier work
[2] = tested on: D. melanogaster; conditions: cited from earlier work
From the text: (§1) The myoinhibitory activities of AT and GSRYa-1 and -2 in the foregut (pharynx and esophagus) and hindgut (ileum) (Figs 5E, 5F and 6E) seem to be linked to the delay in feeding initiation in B. mori larvae (Figs 1D and 6B).

[3] = tested on: B. mori larvae; conditions: cited from earlier work
From the text: Among the feeding regulatory peptides in insects, several peptides are known as ‘brain-gut peptides’, which are expressed and produced in the brain and intestinal organs. […] These peptides may regulate not only the physiological functions related to digestion and intestinal lipid metabolisms but also the intestin ... || The myoinhibitory activities of AT and GSRYa-1 and -2 in the foregut (pharynx and esophagus) and hindgut (ileum) (Figs 5E, 5F and 6E) seem to be linked to the delay in feeding initiation in B. mori larvae (Figs 1D and 6B).

[4] = tested on: D. melanogaster; conditions: cited from earlier work; remark: listed apart in the source
From the text: Peptides having C-terminal RYamide sequences constitute a neuropeptide Y (NPY) family, which is conserved both in vertebrates and invertebrate.

[5] = tested on: foregut of Lacanobia oleracea; conditions: cited from earlier work
From the text: (§2) AT-producing EEs (Fig 2C and 2D) and GSRYamide-producing EEs (Fig 2E and 2F) also have the potential to deliver secretory granules containing peptidyl factors to the hemocoel side through a cellular membrane. Those EEs have similar cellular morphology to EEs releasing other arthropod neuropeptide CCAP (Crustacean cardioactive peptide) observed in the American cockroac ...

[6] = tested on: hindgut of Leucophaea maderae; conditions: cited from earlier work
From the text: as §2

[7] = tested on: esophagus; assay: Esophageal contraction in intact transparent larvae; assay type: in vivo, Bombyx mori
Description: Transparent larvae were prepared by feeding an artificial diet containing 0.05% melamine (Wako Pure Chemical Industries) starting from 0-day-old fifth-instar larvae. […] The visible effect took place in 2-day-old fifth-instar larvae compared to normally fed larvae. The feeding behavioral assay of transparent larva was performed in the same way as that of normal larvae. Each transparent larva was surrounded with a soft sponge and held with both sides by two slide glasses. Transmitted light enabled to illuminate the shape and movement of the shadowed esophagus portion. The contraction of foregut, particularly ‘forward contraction wave’ and ‘peristaltic squeeze’ at the esophagus were observed using a digital microscope to measure the number of contractions per minute. The ‘peristaltic squeezes’ at 8 h and 16 h in non-fed larvae were unmeasurable because of the limit of detection in our observation using digital microscope. 100 μL of distilled water (vehicle control) and 100 μL peptide-containing solution (10^−7–10^−4 M of peptides dissolved in distilled water) were injected dorsolaterally into the hemolymph. After injection, the numbers of contractions per minute of the esophagus were counted from the data of 3 min observation. Statistical analysis was performed using a one-way ANOVA, then a post hoc Dunnett’s test. Reproducibility was confirmed at least twice by assay using different populations of larvae.

[8] = tested on: BNGR-A16; assay: aequorin-based bioluminescent calcium assay, CHO cells expressing BNGR-A16; assay type: cell-based, Bombyx mori; conditions: aequorin luminescence 20 s, triplicates, three experiments
Description: (§3) Activity of the BNGR-A5 and -16 receptors were analyzed using Chinese hamster ovary (CHO) cells transiently transfected with plasmids for expression of each BNGR, calcium-sensitive reporter aequorin and chimeric G protein that couple with receptor activation to an intracellular Ca^2+-increase independent of the endogenous receptor signaling cascade. The entire open reading frames of BNGR-A5 and -16 were cloned into pcDNA3.1(+) vector (Invitrogen) with a Kozak translation initiation sequence incorporated at 5´end. Plasmids for codon optimized aequorin and chimeric G proteins were used as described previously. […]
(§4) The transfected cells were detached using PBS supplemented with 0.2% EDTA and rinsed of the culture plates with the assay medium—phenol red free DMEM/F12 with L-glutamine and 15 mM HEPES (PAN Biotech, Wimborne, Dorset, UK), 0.1% BSA (Sigma-Aldrich Co. LLC.) and 1% penicillin/streptomycin (Life Technologies). […] Emitted luminescence signal corresponding to the ligand-induced intracellular Ca^2+ release was recorded for 20 s using the GloMax-Multi+ Detection System (Promega). […]

[9] = tested on: B. mori larvae; assay: Feeding behavioral assay (latency to first bite), 2-day-old fifth-instar larvae; assay type: in vivo, Bombyx mori; conditions: 100 μL injected dorsolaterally into the hemolymph, after 16 h diet deprivation, n = 3
Description: A part of the eluents of the fractions from RP-HPLC as well as synthetic peptide solutions was evaporated to dryness and dissolved in 100 μL distilled water just prior to the bioassay. The feeding cycles of 2-day-old fifth-instar B. mori larvae were synchronized by diet deprivation for 16 h. After diet deprivation, the larvae were anesthetized by submerging in icy water for 15 min. Then, 100 μL sample was injected dorsolaterally into the hemolymph. After injection, the larvae were placed in front of artificial diet blocks, and then the latency to their first bites as the initiation of feeding (first bite) after sample-injection was measured as reported previously. Statistical analysis was performed using a one-way analysis of variance (one-way ANOVA), then a post hoc Dunnett’s test. Reproducibility was confirmed at least twice by assays using different populations of larvae.

[10] = tested on: foregut of Helicoverpa armigera; conditions: cited from earlier work
From the text: as §2

[11] = tested on: BNGR-A16; conditions: cited from earlier work
[12] = tested on: BNGR-A5; assay: aequorin-based bioluminescent calcium assay, CHO cells expressing BNGR-A5; assay type: cell-based, Bombyx mori; conditions: aequorin luminescence 20 s, triplicates, three experiments
Description: as §3, §4

[13] = tested on: ileum; assay: Spontaneous contraction of the ileum in dissected open larvae; parameters: species or system Bombyx mori
Description: (§5) The opened head and abdominal portion of 2-day-old fifth-instar larvae (fed ad libitum and non-fed for 16 h) were washed twice with B. mori Ringer’s solution and incubated for 3 min at 27°C to stabilize the movement. After incubation, the contractile movements of the larval foregut and hindgut, particularly the spontaneous contraction of the pharynx and ileum (predominantly contracting area in hindgut) were observed and recorded using a digital microscope USB2.0 DigiScope II v2^TM (CHRONOS, Taipei, Taiwan). 100 μL of B. mori Ringer’s solution was added to the examined gut at 60 s after starting recording. Furthermore, 100 μL of B. mori Ringer’s solution (vehicle control) and 100 μL peptide-containing solution (10^−9–10^−5 M of peptides dissolved in B. mori Ringer’s solution) were exposed over gut at 120 s after a recording start. The contractile movements were analyzed using ImageJ software (https://imagej.net/Fiji) with the Optic flow plug-in (Gaussian window MSE). The direction of contractile movement was represented by the color and arrows described in the ‘Direction’ map. The position of the lines used for the kymograph analyses (x-y, z-w) were determined by Optic flow analyses. The waveform of the kymographs, corresponding to the visible contractions in the recorded movies, were quantified and converted to myograms. The number of contractions in 60 s was defined as the ‘contraction frequency’. Invisible contractions in the recorded movie and extremely small amplitudes in the myograms were considered as no significant contractions. The evaluation of visible contraction was defined by giving a threshold at the half length of the observed amplitude. The effect of synthetic peptides was represented by the ratio of the ‘contraction frequency’ at 60–120 s to 120–180 s (%) due to the extendedly various frequencies by individuality; the pharynx (30-40/60s) and hindgut (20-40/60s). This methodology by kymograph is substantially corresponding to the previously used assays for intestinal contraction. […]

[14] = tested on: foregut and hindgut; assay: Wash-out of contraction inhibition, isolated gut; parameters: species or system Bombyx mori; conditions: washing with the vehicle without the ligands
Description: as §5, with “The direction of contractile movement was represented by the color and arrows described in the ‘Direction’ map.” left out, “The number of contractions in 60 s was defined as the ‘contraction frequency’.” left out, “contractions.” for “contractions. The evaluation of visible contraction was defined by giving a threshold at the half length of the observed amplitude. The effect of synthetic peptides was represented by the ratio of the ‘contraction frequency’ at 60–120 s to 120–180 s (%) due to the extendedly various frequencies by individuality; the pharynx (30-40/60s) and hindgut (20-40/60s). This methodology by kymograph is substantially corresponding to the previously used assays for intestinal contraction.”

[15] = tested on: pharynx; assay: Spontaneous contraction of the pharynx in dissected open larvae; parameters: species or system Bombyx mori; conditions: 10^−9–10^−5 M, 27°C, n = 5
Description: as §5, with “The direction of contractile movement was represented by the color and arrows described in the ‘Direction’ map.” left out, “The number of contractions in 60 s was defined as the ‘contraction frequency’.” left out, “contractions.” for “contractions. The evaluation of visible contraction was defined by giving a threshold at the half length of the observed amplitude. The effect of synthetic peptides was represented by the ratio of the ‘contraction frequency’ at 60–120 s to 120–180 s (%) due to the extendedly various frequencies by individuality; the pharynx (30-40/60s) and hindgut (20-40/60s). This methodology by kymograph is substantially corresponding to the previously used assays for intestinal contraction.”

[16] = tested on: foregut, midgut and hindgut; conditions: other insect species; 48 (foregut), 27, 49 (midgut), 50, 51 (hindgut); cited from earlier work
From the text: AT was originally isolated from extracts of heads of pharate adult tobacco hornworm, Manduca sexta as an allatoregulatory peptide. […] Consistently, it is possible in other insect species that ...

[17] = tested on: intestinal contractions; conditions: cited from earlier work
From the text: as §1

[18] = tested on: gut; conditions: Periplaneta americana; cited from earlier work
From the text: as §2

[19] = 10^−7–10^−4 M, 100 μL injected dorsolaterally, fed ad libitum transparent larvae, counted over 3 min, P < 0.05, n = 5

short neuropeptide F [sNPF]
effect on food intake [1]: an inhibitory effect on food intake
effect on food intake and body weight [2]: stimulates food intake and body weight gain
effect on feeding initiation, peptides [3]: feeding acceleratory effect

tachykinin-related peptides [B. mori TRPs]
effect on feeding initiation, peptides [3]: feeding acceleratory effects that can shorten the latency to the initiation of feeding

short neuropeptide F (sNPF) -2 [sNPF-2]
effect on feeding initiation, peptides [3]: feeding acceleratory effects that can shorten the latency to the initiation of feeding

neuropeptide F [NPF]
effect on larval feeding behavior [4]: regulate larval feeding behavior

myosuppressin (leukomyosuppressin)
effect on spontaneous contraction of the foregut, L. oleracea [5]: regulates spontaneous contraction of the foregut
effect on spontaneous contraction of the hindgut, L. maderae [6]: regulates spontaneous contraction of the foregut of Lacanobia oleracea [66] and the hindgut of Leucophaea maderae

allatotropin
forward contraction wave and peristaltic squeeze (movie) ([7]; 10^−5 M solution injected dorsolaterally into the hemolymph): the forward contraction wave and peristaltic squeeze were inhibited
number of forward contraction waves [7, 19]: decreased numbers of forward contraction waves and peristaltic squeezes in a dose-response manner
number of peristaltic squeezes [7, 19]: decreased numbers of forward contraction waves and peristaltic squeezes in a dose-response manner
response, BNGR-A16 [8]: response of BNGR-A5 (Fig 3 an arrow) as well as BNGR-A16 to AT
effect on latency to the first bite, synthetic peptides ([9]; significant by one-way ANOVA (P < 0.01)): prolonged the latency to the first bite in a dose-dependent manner
ED50, prolongation of the latency to the first bite ([9]; synthetic peptides): 1000 nM
effect on spontaneous contraction of the foregut, L. oleracea [5]: regulate spontaneous contraction of the foregut
effect on spontaneous contraction of the foregut, H. armigera [10]: regulate spontaneous contraction of the foregut
AT receptor assignment [11]: the AT receptor is assigned to be BNGR-A16
affinity, BNGR-A5 [12]: much higher affinity to AT than BNGR-A16
contraction of ileum (movie) ([13]; 10^−6 M exposed at 120 s, larvae fed ad libitum): the contraction of ileum was inhibited
relative frequency of contraction, ileum, fed ad libitum ([13]; larvae fed ad libitum, 10^−9–10^−5 M, 27°C, 60–120 s vs 120–180 s, n = 5): decreased relative frequency of contraction
relative frequency of contraction, ileum, non-fed ([13]; larvae non-fed for 16 h, 10^−9–10^−5 M, 27°C, n = 5): decreased the frequency
reversibility of inhibition on washing [14]: did not resume even after washing
relative frequency of contraction, pharynx, fed ad libitum ([15]; larvae fed ad libitum, 60–120 s vs 120–180 s): decreased relative frequency of contraction
relative frequency of contraction, pharynx, non-fed ([15]; larvae non-fed for 16 h): decreased the frequency
myoregulatory activity on foregut, midgut and hindgut [16]: myoregulatory activities
effect on intestinal contractions, other Lepidopteran species [17]: stimulatory effect

allatostatin [AST, reference compound]
effect on spontaneous contraction of the foregut, L. oleracea [5]: regulate spontaneous contraction of the foregut
effect on spontaneous contraction of the foregut, H. armigera [10]: regulate spontaneous contraction of the foregut

Crustacean cardioactive peptide [CCAP]
effect on gut contraction [18]: multiple roles, including gut contraction

Reference: publication PMC6602202, “Enteroendocrine peptides regulate feeding behavior via controlling intestinal contraction of the silkworm Bombyx mori” (PLoS ONE, 2019)
